For orientation: AUC(0-inf) means the area under the concentration-time curve extrapolated to infinity. Higher therefore signals high exposure. One may read the Cmax as the maximum level reached in the sampled fluid or tissue. As usually defined, the Tmax is the time from dosing to the highest level. As usually defined, the half-life is the time needed for the level to fall by half in the phase considered. Lower therefore signals rapid decline.

SMILES strings stand for the structures.

For one data set, the system named is H1975 xenograft tumor. In words: Potency assay of tumor model, 16 consecutive days. In kind it is in vivo, Balb/C nude mice. The note with it: oral. The protocol:
Balb/C nude mice were purchased from Beijing Vital River Laboratory Animal Technology Co., Ltd., and housed in SPF animal room. The human non-small-cell lung cancer cell line H1975 in a culture dish was collected by trypsin-EDTA (0.25% trypsin, 1 mM EDTA), and then washed with a serum-free PBS solution. Lastly, the cells were implanted after diluted in a serum-free medium. Only the single cell suspension with a survival rate over 90% (Trypan blue rejection) can be used for injection. 5 million cells suspended in a 0.1 ml serum-free culture were injected into the front right flanking subcutaneous region of each mouse by using a 1 ml syringe and a 25G syringe needle, and the blood vessel was carefully avoided. The tumor size was measured in about one week after implantation. A caliper rule was used to measure the tumor size. The tumor volume was calculated by the following formula: tumor volume=(length×width^2)/2.
This experiment studied the inhibition of tumor growth in H1975 xenograft tumor model by the compounds 20, 50, 91, and 118. When the mean volume of H1975 tumor reached about 260 mm^3, the animals were divided into 5 oral administration groups, that is, excipient control group and groups of oral administration of compound 20, compound 50, compound 91, and compound 118, respectively (n=8/group). These compounds were dissolved in 30% sulfobutylated beta-cyclodextrin (SBE-β-CD) and 1N HCl (pH 3-4). […]

The test system of another data set is H358. Description: Inhibition assay on tumor cell proliferation (CellTiter-Glo), H358. The note with it: Homo sapiens, NCI-H358; H358 (wild-type EGFR), 72 hours, 10% bovine serum. In kind it is cell-based, Human. The method in brief: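 Viability from ATP content by CellTiter-Glo luminescence; inhibition normalised to DMSO (max) and medium-only (min) wells, IC50 by sigmoidal dose-response fitting. LOVO and H358 carry wild-type EGFR; HCC827 has exon 19 deletion.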

Data set [1] is described as follows: Pharmacokinetics in rats after oral administration. In kind it is in vivo, SD rats.
Data set [2] can be described thus: Pharmacokinetics in beagles after oral administration. In kind it is in vivo. Particulars: male, beagle, dog, 5 mg/kg, plasma. The protocol: Male SD rats weighing 250-300 g, or male beagles weighing 9-10 kg, were fasted overnight before the experiment. The object compounds were dissolved in 30% sulfobutylated beta-cyclodextrin (SBE-β-CD), and orally administrated to the rats at a dose of 20 mg/kg or to the beagles at a dose of 5 mg/kg. Blood samples were taken at 15 minutes, 30 minutes, 1 hour, 2 hours, 3 hours, 4 hours, 6 hours, 8 hours and 24 hours after administration. 0.3 ml of blood was collected at every time point, placed in a centrifuge tube containing K2-EDTA (ethylenediamine tetraacetic acid dipotassium) and centrifuged (2,000 g, 10 minutes, 4° C.) to collect plasma, which was then stored in an ultra cold storage freezer at −80° C. 50 μL of plasma sample was mixed with 5 μL of internal standard (IS), and then extracted with ethyl acetate. After vacuum drying, the residue was re-dissolved in acetonitrile. The sample was filtered and injected into LC-MS/MS for analysis.

The next data set concerns the target T1, EGFR T790M/L858R (Homo sapiens, UniProt P00533, L858R/T790M).
T1 construct: purchased Invitrogen PR8911A
Description: Mutant EGFR T790M/L858R activity inhibition assay (Caliper mobility shift). In kind it is biochemical. The note with it: read-out: enzyme activity inhibition (IC50) EGFR T790M/L858R. Summed up: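 Compound added in 10% DMSO at 5-fold final concentration; substrate conversion read by Caliper mobility shift. Inhibition = (max−conversion)/(max−min)×100, with max from DMSO no-compound wells and min from no-enzyme wells; IC50 from fitted concentration–response curve.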

The test system of a further data set is H1975. Description: Inhibition assay on tumor cell proliferation (CellTiter-Glo), H1975. In kind it is cell-based, Human. The note with it: Homo sapiens, NCI-H1975; H1975 (L858R and T790M EGFR double mutation), 72 hours, 10% bovine serum. A general note: In ATP-based viability assays light output follows the ATP content of the culture.
Where [3] appears, read: male, SD, rat, 20 mg/kg, plasma.

T1 sequence (P00533 25-1210 T790M/L858R): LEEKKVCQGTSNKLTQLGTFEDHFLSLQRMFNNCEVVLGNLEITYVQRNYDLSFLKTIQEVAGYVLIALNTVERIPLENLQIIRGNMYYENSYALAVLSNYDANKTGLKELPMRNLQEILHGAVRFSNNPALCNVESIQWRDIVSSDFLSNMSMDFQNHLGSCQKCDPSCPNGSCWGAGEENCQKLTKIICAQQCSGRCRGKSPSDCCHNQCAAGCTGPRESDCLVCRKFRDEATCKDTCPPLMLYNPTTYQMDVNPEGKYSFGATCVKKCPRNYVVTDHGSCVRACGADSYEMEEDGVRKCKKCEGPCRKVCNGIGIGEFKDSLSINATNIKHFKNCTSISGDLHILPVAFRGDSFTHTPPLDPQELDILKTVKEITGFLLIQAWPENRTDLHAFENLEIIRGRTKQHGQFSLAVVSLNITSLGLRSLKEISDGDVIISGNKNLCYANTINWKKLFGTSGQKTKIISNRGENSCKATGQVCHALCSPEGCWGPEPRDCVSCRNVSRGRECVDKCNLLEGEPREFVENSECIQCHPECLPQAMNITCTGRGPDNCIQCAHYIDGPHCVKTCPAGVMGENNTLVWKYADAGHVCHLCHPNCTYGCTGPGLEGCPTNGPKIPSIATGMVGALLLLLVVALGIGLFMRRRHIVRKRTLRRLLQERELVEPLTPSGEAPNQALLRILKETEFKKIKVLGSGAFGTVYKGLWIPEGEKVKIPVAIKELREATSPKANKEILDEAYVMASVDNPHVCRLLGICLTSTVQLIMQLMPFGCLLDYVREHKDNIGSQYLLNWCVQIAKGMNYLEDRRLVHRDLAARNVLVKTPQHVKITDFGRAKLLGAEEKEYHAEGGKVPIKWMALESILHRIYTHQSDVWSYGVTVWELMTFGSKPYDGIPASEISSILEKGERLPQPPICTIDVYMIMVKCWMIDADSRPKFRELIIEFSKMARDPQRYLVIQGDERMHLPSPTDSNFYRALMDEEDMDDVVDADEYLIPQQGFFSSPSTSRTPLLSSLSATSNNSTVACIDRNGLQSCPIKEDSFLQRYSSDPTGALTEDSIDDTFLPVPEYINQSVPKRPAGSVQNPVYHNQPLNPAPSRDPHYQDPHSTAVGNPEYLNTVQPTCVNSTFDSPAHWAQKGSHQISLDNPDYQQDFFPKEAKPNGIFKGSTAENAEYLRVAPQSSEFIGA

As for `C=CC(=O)Nc1cc(Nc2nccc(-n3c(=O)n(C(C)C)c4cc(F)ccc43)n2)c(OC)cc1N(C)CCN(C)C` [Compound 91, N-(2-((2-(dimethylamino)ethyl)(methyl)amino)-5-(4-(5-fluoro-3-isopropyl-2-oxo-2,3-dihydro-1H-benzo[d]imidazol-1-yl)pyrimidin-2-ylamino)-4-methoxyphenyl)acrylamide], in the data set with H1975 xenograft tumor (30 mg/kg qd as printed, 16 days after administration), the T/C value is listed as −95%. Also, the “inhibition of growth of H1975 xenograft tumor (in words)” value in the data set with H1975 xenograft tumor (30 mg/kg qd, 16 days) is given as “tumor regression”. Moreover, the IC50 was 100 to 1000 nM in the data set on H358, < 1 nM on EGFR T790M/L858R and < 10 nM in the data set on H1975. Besides, the “absorption / blood exposure after oral administration (in words)” value in data set [1] is given as “well absorbed, with high blood exposure”. Besides, the AUC(0-inf) in data set [1] (setting [3]) was 1350 ng·h/mL; in data set [2] it was 814 ng·h/mL. Besides, the Cmax amounted to 292 ng/mL in data set [1] (setting [3]) and 109 ng/mL in data set [2]. In addition, the time to peak (Tmax) in data set [1] (setting [3]) is 1 h; in data set [2], 1.67 h. The values for the half-life in data set [1] (setting [3]) and in data set [2] were 3 h and 4.37 h, respectively. Also, the AUC(0-t) in data set [1] (male, SD, rat, 20 mg/kg, plasma, read-out: AUC0-24) was found to be 1340 ng·h/mL; in data set [2] (read-out: AUC0-24) it was 786 ng·h/mL.

For the origin of these results see patent publication US11267802B2 (BEBETTER MED INC., priority 2015, dated 2022).
